In ChEMBL document CHEMBL5058646 (2022):

Experiments:
[1] = biological target: T1, Zinc finger and BTB domain-containing protein 40 (Homo sapiens) (UniProt Q9NUA8); conditions: OCI-Ly1, Compound concentration 1.0 uM
T1 sequence (whole entry): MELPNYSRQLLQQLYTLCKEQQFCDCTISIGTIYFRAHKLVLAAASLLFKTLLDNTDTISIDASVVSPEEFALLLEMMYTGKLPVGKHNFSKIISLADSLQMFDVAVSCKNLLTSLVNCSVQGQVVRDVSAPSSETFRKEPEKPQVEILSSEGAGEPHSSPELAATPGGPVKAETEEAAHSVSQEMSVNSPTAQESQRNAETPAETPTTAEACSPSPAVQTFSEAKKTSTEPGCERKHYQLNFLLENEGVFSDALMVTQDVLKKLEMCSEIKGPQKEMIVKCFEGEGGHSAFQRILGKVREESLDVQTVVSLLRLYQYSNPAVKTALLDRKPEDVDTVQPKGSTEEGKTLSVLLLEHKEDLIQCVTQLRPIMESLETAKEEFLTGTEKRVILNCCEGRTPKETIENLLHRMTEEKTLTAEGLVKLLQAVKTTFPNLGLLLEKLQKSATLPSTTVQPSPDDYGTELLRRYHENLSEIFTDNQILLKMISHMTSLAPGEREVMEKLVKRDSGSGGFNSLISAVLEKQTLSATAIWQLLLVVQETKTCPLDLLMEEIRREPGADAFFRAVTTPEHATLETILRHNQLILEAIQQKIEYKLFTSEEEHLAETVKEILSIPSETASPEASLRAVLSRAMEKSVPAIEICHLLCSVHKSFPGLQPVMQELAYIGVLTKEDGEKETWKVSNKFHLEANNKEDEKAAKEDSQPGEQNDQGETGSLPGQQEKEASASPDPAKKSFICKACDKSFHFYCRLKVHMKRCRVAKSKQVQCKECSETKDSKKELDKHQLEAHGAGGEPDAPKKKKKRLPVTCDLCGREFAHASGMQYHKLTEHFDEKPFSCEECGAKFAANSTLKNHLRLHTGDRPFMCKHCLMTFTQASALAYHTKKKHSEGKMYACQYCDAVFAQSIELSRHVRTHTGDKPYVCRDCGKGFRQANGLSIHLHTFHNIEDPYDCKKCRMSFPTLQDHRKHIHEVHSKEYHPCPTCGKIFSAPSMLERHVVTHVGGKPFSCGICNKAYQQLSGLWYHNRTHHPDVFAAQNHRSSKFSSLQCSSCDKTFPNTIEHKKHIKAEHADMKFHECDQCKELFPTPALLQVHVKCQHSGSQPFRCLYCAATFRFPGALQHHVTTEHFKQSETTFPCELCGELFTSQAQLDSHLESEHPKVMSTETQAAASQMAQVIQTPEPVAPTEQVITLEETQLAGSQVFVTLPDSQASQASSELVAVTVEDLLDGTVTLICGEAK

[2] = biological target: Mitogen-activated protein kinase 15 (Homo sapiens) (UniProt Q8TD08); assay: MAPK15 SGC Tm panel (DSF); conditions: Compound concentration 20.0 uM
[3] = biological target: T2, Zinc finger and BTB domain-containing protein 1 (Homo sapiens) (UniProt Q9Y2K1); conditions: OCI-Ly1, Compound concentration 1.0 uM
T2 sequence (whole entry): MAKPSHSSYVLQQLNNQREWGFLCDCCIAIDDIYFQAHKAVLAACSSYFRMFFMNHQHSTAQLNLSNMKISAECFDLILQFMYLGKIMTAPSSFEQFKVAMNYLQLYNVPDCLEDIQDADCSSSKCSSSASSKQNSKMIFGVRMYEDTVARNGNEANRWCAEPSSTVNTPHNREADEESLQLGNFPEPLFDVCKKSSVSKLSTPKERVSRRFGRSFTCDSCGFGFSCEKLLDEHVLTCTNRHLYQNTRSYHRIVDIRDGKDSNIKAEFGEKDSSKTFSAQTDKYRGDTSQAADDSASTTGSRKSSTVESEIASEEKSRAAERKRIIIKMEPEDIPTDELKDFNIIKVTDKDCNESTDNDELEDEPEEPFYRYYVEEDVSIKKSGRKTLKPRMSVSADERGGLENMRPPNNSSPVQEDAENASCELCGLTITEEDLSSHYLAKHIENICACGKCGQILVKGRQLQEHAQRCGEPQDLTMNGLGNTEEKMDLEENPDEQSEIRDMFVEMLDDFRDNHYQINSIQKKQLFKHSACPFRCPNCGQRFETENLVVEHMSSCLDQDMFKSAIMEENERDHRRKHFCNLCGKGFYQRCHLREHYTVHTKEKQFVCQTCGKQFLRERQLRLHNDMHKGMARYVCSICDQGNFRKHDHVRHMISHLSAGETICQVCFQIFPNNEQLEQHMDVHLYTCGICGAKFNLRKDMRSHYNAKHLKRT

[4] = biological target: T2, Zinc finger and BTB domain-containing protein 1 (Homo sapiens); conditions: SUD4, Compound concentration 1.0 uM
[5] = biological target: Maternal embryonic leucine zipper kinase (Homo sapiens) (UniProt Q14680); assay: MELK SGC Tm panel (DSF); conditions: Compound concentration 20.0 uM
[6] = biological target: D(1B) dopamine receptor (Homo sapiens) (UniProt P21918); conditions: Compound concentration 10.0 uM
[7] = biological target: MAP/microtubule affinity-regulating kinase 3 (Homo sapiens) (UniProt P27448); assay: MARK3 SGC Tm panel (DSF); conditions: Compound concentration 20.0 uM
[8] = biological target: D(4) dopamine receptor (Homo sapiens) (UniProt P21917); conditions: Compound concentration 10.0 uM
[9] = biological target: T3, Zinc finger and BTB domain-containing protein 9 (Homo sapiens) (UniProt Q96C00); conditions: SUD4, Compound concentration 1.0 uM
T3 sequence (whole entry): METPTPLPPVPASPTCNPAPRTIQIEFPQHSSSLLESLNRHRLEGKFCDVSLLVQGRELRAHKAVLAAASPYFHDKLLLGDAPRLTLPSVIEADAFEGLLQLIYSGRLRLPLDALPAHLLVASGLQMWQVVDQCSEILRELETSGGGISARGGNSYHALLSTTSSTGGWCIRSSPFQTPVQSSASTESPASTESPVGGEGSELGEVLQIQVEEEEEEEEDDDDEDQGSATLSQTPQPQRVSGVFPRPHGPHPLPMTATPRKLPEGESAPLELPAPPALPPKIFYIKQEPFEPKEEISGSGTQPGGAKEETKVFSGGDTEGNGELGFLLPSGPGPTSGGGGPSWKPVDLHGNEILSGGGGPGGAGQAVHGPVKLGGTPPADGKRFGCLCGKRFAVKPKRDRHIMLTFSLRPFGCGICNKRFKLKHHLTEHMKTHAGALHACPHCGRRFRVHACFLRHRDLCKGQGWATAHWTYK

[10] = biological target: T1, Zinc finger and BTB domain-containing protein 40 (Homo sapiens); conditions: SUD4, Compound concentration 1.0 uM
[11] = biological target: 5-hydroxytryptamine receptor 2C (Homo sapiens) (UniProt P28335); conditions: Compound concentration 10.0 uM
5-hydroxytryptamine receptor 2C (Homo sapiens), sequence (P28335 whole entry): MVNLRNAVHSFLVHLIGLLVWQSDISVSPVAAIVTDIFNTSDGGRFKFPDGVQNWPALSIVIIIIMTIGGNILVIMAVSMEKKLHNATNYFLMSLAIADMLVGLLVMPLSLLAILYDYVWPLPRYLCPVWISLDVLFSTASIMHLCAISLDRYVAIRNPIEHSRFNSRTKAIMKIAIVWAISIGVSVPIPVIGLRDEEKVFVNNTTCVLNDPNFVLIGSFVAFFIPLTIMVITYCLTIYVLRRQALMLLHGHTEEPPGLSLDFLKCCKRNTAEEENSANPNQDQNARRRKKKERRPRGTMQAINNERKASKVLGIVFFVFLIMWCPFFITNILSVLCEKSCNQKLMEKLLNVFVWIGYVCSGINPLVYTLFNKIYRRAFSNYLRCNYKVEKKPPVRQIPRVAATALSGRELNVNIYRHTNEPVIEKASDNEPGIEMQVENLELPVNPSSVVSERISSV

Mitogen-activated protein kinase 15 (Homo sapiens), sequence (Q8TD08 whole entry, the tested form may be a part): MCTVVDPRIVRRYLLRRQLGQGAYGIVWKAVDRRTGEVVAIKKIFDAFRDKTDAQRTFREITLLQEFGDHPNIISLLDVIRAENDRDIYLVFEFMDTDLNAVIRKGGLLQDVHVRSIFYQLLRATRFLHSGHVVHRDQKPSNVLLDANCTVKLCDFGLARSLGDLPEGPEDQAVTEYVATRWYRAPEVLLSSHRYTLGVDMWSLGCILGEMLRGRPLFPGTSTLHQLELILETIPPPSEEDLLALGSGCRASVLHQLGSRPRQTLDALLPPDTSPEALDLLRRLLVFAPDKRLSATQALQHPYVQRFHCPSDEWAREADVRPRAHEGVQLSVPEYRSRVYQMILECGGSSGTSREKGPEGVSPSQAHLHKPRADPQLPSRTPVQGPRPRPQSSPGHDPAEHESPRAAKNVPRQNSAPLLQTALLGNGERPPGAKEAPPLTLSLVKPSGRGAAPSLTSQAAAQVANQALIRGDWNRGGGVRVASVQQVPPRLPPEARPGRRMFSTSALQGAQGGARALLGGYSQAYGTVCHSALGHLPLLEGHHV
D(1B) dopamine receptor (Homo sapiens), sequence (P21918 whole entry): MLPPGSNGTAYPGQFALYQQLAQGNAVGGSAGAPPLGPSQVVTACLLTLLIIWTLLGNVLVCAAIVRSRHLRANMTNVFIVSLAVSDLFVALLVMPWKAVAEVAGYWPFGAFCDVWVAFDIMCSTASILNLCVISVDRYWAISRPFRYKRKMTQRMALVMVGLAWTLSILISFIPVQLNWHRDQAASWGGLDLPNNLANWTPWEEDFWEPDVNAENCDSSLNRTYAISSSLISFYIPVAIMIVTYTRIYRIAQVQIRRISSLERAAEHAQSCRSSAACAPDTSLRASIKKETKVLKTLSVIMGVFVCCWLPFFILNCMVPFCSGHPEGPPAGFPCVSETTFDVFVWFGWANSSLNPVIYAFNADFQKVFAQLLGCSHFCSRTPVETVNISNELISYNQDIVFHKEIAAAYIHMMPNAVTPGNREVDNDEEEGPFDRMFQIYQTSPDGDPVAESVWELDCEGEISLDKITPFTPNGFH
Maternal embryonic leucine zipper kinase (Homo sapiens), sequence (Q14680 whole entry, looked up): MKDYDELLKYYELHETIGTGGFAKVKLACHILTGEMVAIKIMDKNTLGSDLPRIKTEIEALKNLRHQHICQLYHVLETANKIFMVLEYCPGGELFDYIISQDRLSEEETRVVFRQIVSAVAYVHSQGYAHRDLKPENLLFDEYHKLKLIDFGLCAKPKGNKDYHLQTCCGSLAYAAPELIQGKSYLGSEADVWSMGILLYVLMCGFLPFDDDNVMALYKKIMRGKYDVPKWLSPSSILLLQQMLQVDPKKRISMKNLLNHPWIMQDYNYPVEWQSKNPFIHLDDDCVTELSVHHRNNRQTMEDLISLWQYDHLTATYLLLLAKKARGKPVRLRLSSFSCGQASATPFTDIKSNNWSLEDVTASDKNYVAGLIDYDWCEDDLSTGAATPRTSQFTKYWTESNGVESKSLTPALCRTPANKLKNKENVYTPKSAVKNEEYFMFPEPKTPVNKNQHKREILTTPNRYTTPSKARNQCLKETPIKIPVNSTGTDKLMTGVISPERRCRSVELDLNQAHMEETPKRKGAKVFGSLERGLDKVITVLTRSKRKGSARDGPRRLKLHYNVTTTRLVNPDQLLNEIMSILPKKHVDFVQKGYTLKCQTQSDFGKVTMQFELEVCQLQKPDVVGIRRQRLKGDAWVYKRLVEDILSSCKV
MAP/microtubule affinity-regulating kinase 3 (Homo sapiens), sequence (P27448 whole entry, looked up): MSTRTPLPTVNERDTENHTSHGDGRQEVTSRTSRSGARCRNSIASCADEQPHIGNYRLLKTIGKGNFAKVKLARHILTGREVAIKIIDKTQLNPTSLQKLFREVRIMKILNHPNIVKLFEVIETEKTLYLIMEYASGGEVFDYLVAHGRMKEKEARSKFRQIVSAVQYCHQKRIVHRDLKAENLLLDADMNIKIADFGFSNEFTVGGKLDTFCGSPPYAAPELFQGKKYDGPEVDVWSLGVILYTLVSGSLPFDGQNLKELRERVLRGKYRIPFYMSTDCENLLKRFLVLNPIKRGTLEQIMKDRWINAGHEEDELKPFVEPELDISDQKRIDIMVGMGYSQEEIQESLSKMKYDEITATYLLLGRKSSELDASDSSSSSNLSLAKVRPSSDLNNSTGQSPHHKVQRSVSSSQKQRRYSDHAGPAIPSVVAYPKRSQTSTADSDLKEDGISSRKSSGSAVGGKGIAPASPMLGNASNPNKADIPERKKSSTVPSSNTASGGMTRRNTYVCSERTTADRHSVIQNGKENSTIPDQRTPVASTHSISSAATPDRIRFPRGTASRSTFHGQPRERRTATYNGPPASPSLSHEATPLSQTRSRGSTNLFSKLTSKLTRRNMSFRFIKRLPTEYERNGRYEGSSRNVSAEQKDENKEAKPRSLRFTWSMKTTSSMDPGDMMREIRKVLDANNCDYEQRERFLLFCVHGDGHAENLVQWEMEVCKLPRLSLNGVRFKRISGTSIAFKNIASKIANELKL
D(4) dopamine receptor (Homo sapiens), sequence (P21917 whole entry, the tested form may be a part): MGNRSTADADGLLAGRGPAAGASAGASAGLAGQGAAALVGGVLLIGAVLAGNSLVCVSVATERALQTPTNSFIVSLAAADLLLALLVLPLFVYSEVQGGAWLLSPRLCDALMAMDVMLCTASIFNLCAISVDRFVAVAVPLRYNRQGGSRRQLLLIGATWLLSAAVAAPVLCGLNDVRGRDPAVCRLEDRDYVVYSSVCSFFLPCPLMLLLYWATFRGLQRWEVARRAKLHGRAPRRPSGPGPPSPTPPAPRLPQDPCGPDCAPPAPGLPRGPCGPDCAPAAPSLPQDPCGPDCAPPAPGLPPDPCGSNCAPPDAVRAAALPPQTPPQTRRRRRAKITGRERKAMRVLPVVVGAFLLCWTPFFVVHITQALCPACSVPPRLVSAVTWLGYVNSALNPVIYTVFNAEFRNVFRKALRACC

C[C@@H]1CN(c2ncc(Cl)c(Nc3ccc4c(c3)n(CCC(C)(C)O)c(=O)n4C)n2)C[C@H](C)C1(F)F
inactive: LogFC [1] -0.194 | Tm [2] 50 °C | LogFC [3] -0.0612 | LogFC [4] -0.0255 | Tm [5] 41 °C | inhibition [6] 26.2% | Tm [7] 35 °C | inhibition [8] 15.2% | LogFC [9] -0.0222 | LogFC [10] -0.00123 | inhibition [11] 16.1%
